From patent publication US9708314B2, “Heterocyclic amide compound” (NISSAN CHEMICAL INDUSTRIES, LTD., priority 2013, dated 2017)

Experiments:
Assay type in all cases: in vivo
Cyperus difformis = test: Test Example 3: herbicidal effect by application to foliage (Wagner pot, water depth 0.1-0.5 cm); conditions: Nineteenth Table; application to foliage; application herbicide amount 320 g/ha
Procedure, shortened: (§1)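 Scores (0–5) reflect herbicidal ratio three weeks after a foliar spray: 0 is 5% or less, 5 is 90% or more. Plants had grown 14 days in alluvial soil pots in a 25–30 °C greenhouse before treatment with water-diluted emulsion at a set g/ha.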

Leptochloa chinensis = test: as above; conditions: Nineteenth Table; application to foliage; application herbicide amount 320 g/ha
Procedure, shortened: as §1

[1] = test system: Echinochloa crus-galli var. crus-galli; test: as above; conditions: Nineteenth Table; application to foliage; application herbicide amount 320 g/ha
Procedure, shortened: as §1

[2] = test system: Beta vulgaris ssp. vulgaris; test: Test Example 4: effect on crop by application to foliage (diluvial soil, plastic box); conditions: foliage application, 320 g/ha
Procedure, shortened: (§2)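 Scores run from 0 (herbicidal ratio ≤5%) to 5 (≥90%, almost fully withered) and were assessed three weeks after foliar spraying. Seedlings had been raised for 14 days at 25-30° C in sterilized diluvial soil before treatment, with the emulsion diluted in water to the stated g/ha dose.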

[3] = test system: directly sowed Oryza sativa; test: as above; conditions: foliage application, 320 g/ha
Procedure, shortened: as §2

Glycine max = test: as above; conditions: foliage application, 320 g/ha
Procedure, shortened: as §2

Triticum aestivum = test: as above; conditions: foliage application, 320 g/ha
Procedure, shortened: as §2

Zea mays = test: as above; conditions: foliage application, 320 g/ha
Procedure, shortened: as §2

Brassica campestris L. = test: as above; conditions: foliage application, 320 g/ha
Procedure, shortened: as §2

Structure (SMILES) | E (herbicidal effect grade) (Cyperus difformis) | D (herbicidal effect grade) (Leptochloa chinensis) | H (herbicidal effect grade) [1] | f (Beta vulgaris ssp. vulgaris) effect on crop grade [2] | d (directly sowed Oryza sativa) effect on crop grade [3] | c (Glycine max) effect on crop grade (Glycine max) | e (Triticum aestivum) effect on crop grade (Triticum aestivum) | b (Zea mays) effect on crop grade (Zea mays) | g (Brassica campestris L.) effect on crop grade (Brassica campestris L.)
COC(=O)Cn1nnnc1NC(=O)c1ccc(C(F)(F)F)n2c(C(C)C)nnc12 [2-046] | 3 (Herbicidal ratio of 40% or more and less than 70%) | 3 (Herbicidal ratio of 40% or more and less than 70%) | 2 (Herbicidal ratio of 20% or more and less than 40%) | 2 (Herbicidal ratio of 20% or more and less than 40%) | 0 (Herbicidal ratio of 5% or less (almost no effect)) | 0 (Herbicidal ratio of 5% or less (almost no effect)) | 0 (Herbicidal ratio of 5% or less (almost no effect)) | 0 (Herbicidal ratio of 5% or less (almost no effect)) | 0 (Herbicidal ratio of 5% or less (almost no effect))
CC(C)c1nnc2c(C(=O)Nc3nnnn3C)ccc(C(F)F)n12 [2-047] | 5 (Herbicidal ratio of 90% or more (almost completely withered)) | 5 (Herbicidal ratio of 90% or more (almost completely withered)) | 4 (Herbicidal ratio of 70% or more and less than 90%) | 5 (Herbicidal ratio of 90% or more (almost completely withered)) | 3 (Herbicidal ratio of 40% or more and less than 70%) | 0 (Herbicidal ratio of 5% or less (almost no effect)) | 3 (Herbicidal ratio of 40% or more and less than 70%) | 3 (Herbicidal ratio of 40% or more and less than 70%) | 3 (Herbicidal ratio of 40% or more and less than 70%)
CSCCn1nnnc1NC(=O)c1ccc(C(F)(F)F)n2c(C(C)C)nnc12 [2-048] | 5 (Herbicidal ratio of 90% or more (almost completely withered)) | 5 (Herbicidal ratio of 90% or more (almost completely withered)) | 5 (Herbicidal ratio of 90% or more (almost completely withered)) | 5 (Herbicidal ratio of 90% or more (almost completely withered)) | 5 (Herbicidal ratio of 90% or more (almost completely withered)) | 4 (Herbicidal ratio of 70% or more and less than 90%) | 4 (Herbicidal ratio of 70% or more and less than 90%) | 4 (Herbicidal ratio of 70% or more and less than 90%) | 5 (Herbicidal ratio of 90% or more (almost completely withered))
CC(C)c1nnc2c(C(=O)Nc3nnnn3C)ccc(C(F)(F)C(F)(F)F)n12 [2-049] | 5 (Herbicidal ratio of 90% or more (almost completely withered)) | 5 (Herbicidal ratio of 90% or more (almost completely withered)) | 5 (Herbicidal ratio of 90% or more (almost completely withered)) | 4 (Herbicidal ratio of 70% or more and less than 90%) | 4 (Herbicidal ratio of 70% or more and less than 90%) | 1 (Herbicidal ratio of 5% or more and less than 20%) | 0 (Herbicidal ratio of 5% or less (almost no effect)) | 2 (Herbicidal ratio of 20% or more and less than 40%) | 3 (Herbicidal ratio of 40% or more and less than 70%)
CN(C)c1nnc2c(C(=O)Nc3nnnn3C)ccc(C(F)(F)F)n12 [2-051] | 5 (Herbicidal ratio of 90% or more (almost completely withered)) | 5 (Herbicidal ratio of 90% or more (almost completely withered)) | 5 (Herbicidal ratio of 90% or more (almost completely withered)) | 5 (Herbicidal ratio of 90% or more (almost completely withered)) | 4 (Herbicidal ratio of 70% or more and less than 90%) | 2 (Herbicidal ratio of 20% or more and less than 40%) | 4 (Herbicidal ratio of 70% or more and less than 90%) | 4 (Herbicidal ratio of 70% or more and less than 90%) | 4 (Herbicidal ratio of 70% or more and less than 90%)
CSC(C)c1nnc2c(C(=O)Nc3nnnn3C)ccc(C(F)(F)F)n12 (stereo not drawn) [2-052] | 5 (Herbicidal ratio of 90% or more (almost completely withered)) | 5 (Herbicidal ratio of 90% or more (almost completely withered)) | 5 (Herbicidal ratio of 90% or more (almost completely withered)) | 5 (Herbicidal ratio of 90% or more (almost completely withered)) | 5 (Herbicidal ratio of 90% or more (almost completely withered)) | 4 (Herbicidal ratio of 70% or more and less than 90%) | 5 (Herbicidal ratio of 90% or more (almost completely withered)) | 5 (Herbicidal ratio of 90% or more (almost completely withered)) | 5 (Herbicidal ratio of 90% or more (almost completely withered))
CC(c1nnc2c(C(=O)Nc3nnnn3C)ccc(C(F)(F)F)n12)[S+](C)[O-] (stereo not drawn) [2-053] | 5 (Herbicidal ratio of 90% or more (almost completely withered)) | 5 (Herbicidal ratio of 90% or more (almost completely withered)) | 5 (Herbicidal ratio of 90% or more (almost completely withered)) | 5 (Herbicidal ratio of 90% or more (almost completely withered)) | 5 (Herbicidal ratio of 90% or more (almost completely withered)) | 4 (Herbicidal ratio of 70% or more and less than 90%) | 5 (Herbicidal ratio of 90% or more (almost completely withered)) | 5 (Herbicidal ratio of 90% or more (almost completely withered)) | 5 (Herbicidal ratio of 90% or more (almost completely withered))
CC(c1nnc2c(C(=O)Nc3nnnn3C)ccc(C(F)(F)F)n12)S(C)(=O)=O (stereo not drawn) [2-054] | 5 (Herbicidal ratio of 90% or more (almost completely withered)) | 5 (Herbicidal ratio of 90% or more (almost completely withered)) | 5 (Herbicidal ratio of 90% or more (almost completely withered)) | 5 (Herbicidal ratio of 90% or more (almost completely withered)) | 5 (Herbicidal ratio of 90% or more (almost completely withered)) | 5 (Herbicidal ratio of 90% or more (almost completely withered)) | 5 (Herbicidal ratio of 90% or more (almost completely withered)) | 5 (Herbicidal ratio of 90% or more (almost completely withered)) | 5 (Herbicidal ratio of 90% or more (almost completely withered))
Cn1nnnc1NC(=O)c1ccc(C(F)(F)F)n2c(Nc3ccccc3)nnc12 [2-056] | 4 (Herbicidal ratio of 70% or more and less than 90%) | 5 (Herbicidal ratio of 90% or more (almost completely withered)) | 4 (Herbicidal ratio of 70% or more and less than 90%) | 5 (Herbicidal ratio of 90% or more (almost completely withered)) | 3 (Herbicidal ratio of 40% or more and less than 70%) | 1 (Herbicidal ratio of 5% or more and less than 20%) | 1 (Herbicidal ratio of 5% or more and less than 20%) | 0 (Herbicidal ratio of 5% or less (almost no effect)) | 3 (Herbicidal ratio of 40% or more and less than 70%)
CSCCc1nnc2c(C(=O)Nc3nnnn3C)ccc(C(F)(F)F)n12 [2-057] | 5 (Herbicidal ratio of 90% or more (almost completely withered)) | 5 (Herbicidal ratio of 90% or more (almost completely withered)) | 5 (Herbicidal ratio of 90% or more (almost completely withered)) | 5 (Herbicidal ratio of 90% or more (almost completely withered)) | 5 (Herbicidal ratio of 90% or more (almost completely withered)) | 2 (Herbicidal ratio of 20% or more and less than 40%) | 4 (Herbicidal ratio of 70% or more and less than 90%) | 4 (Herbicidal ratio of 70% or more and less than 90%) | 5 (Herbicidal ratio of 90% or more (almost completely withered))
